What all share (format): binding
The target of test [1] is T1, Avi-KRAS G12D (1-169) GppNHp/RAF1 RBD-3xFLAG (52-151) (Homo sapiens, UniProt P01116, G12D).
T1 construct: Avi-KRAS G12D (1-169)
The experiment in a line: Raf1-KRAS G12D-GppNHP disruption HTRF assay (Biological Example 1). The settings on record: KRAS G12D-GppNHp/RAF1 RBD HTRF. The essentials: (§1)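 Compounds were tested for disruption of KRAS–RAF1 RBD binding by HTRF in 50 mM Tris pH 7.5, 100 mM NaCl, 5 mM MgCl2, 0.1% BSA, 0.01% Tween, 10% DMSO. Protein mix was incubated 1 h at room temperature with shaking, then detection reagents added for another 1 h. Activity expressed as percent of DMSO control.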
On the technique in general: In TR-FRET formats the signal depends on donor and acceptor labels being close together.

Test [2] addresses T2, Avi-KRAS G12R (1-169) GppNHp/RAF1 RBD-3xFLAG (52-151) (Homo sapiens, UniProt P01116, G12R).
T2 construct: Avi-KRAS G12R (1-169)
Kind of test: Raf1-KRAS G12R-GppNHP disruption HTRF assay (Biological Example 1). The settings on record: KRAS G12R-GppNHp/RAF1 RBD HTRF. The essentials: as §1

Test [3] has as its target T3, Avi-KRAS G12V (1-169) GppNHp/RAF1 RBD-3xFLAG (52-151) (Homo sapiens, UniProt P01116, G12V).
T3 construct: Avi-KRAS G12V (1-169)
The experiment in a line: Raf1-KRAS G12V-GppNHP disruption HTRF assay (Biological Example 1). The following applies: KRAS G12V-GppNHp/RAF1 RBD HTRF. The essentials: as §1

Test [4] concerns the target T4, Avi-KRAS WT (1-169) GppNHp/RAF1 RBD-3xFLAG (52-151) (Homo sapiens, UniProt P01116).
T4 construct: Avi-KRAS WT (1-169)
The experiment in a line: Raf1-KRAS WT-GppNHP disruption HTRF assay (Biological Example 1). The settings on record: KRAS WT-GppNHp/RAF1 RBD HTRF. The essentials:
as §1

Test [5] has as its target T5, Avi-KRAS G12D (2-169) GTP/RAF1 RBD-3xFLAG (51-131) (Homo sapiens, UniProt P01116, G12D).
T5 construct: Avi-KRAS G12D (2-169)
The experiment in a line: Raf1-KRAS G12D-GTP disruption HTRF assay (Biological Example 3). The following applies: KRAS G12D, GTP-loaded. The essentials:
(§2)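 An HTRF assay measured disruption of 50 nM Avi-KRAS (2-169)-GTP (WT, G12C, G12D or G12V) bound to RAF1 RBD-3xFLAG (51-131). Buffer was Tris pH 7.5 with 5 mM MgCl2 and 10% DMSO. Compounds (30–0.005 μM, 3-fold, 10 points) were incubated 1 h at room temperature, and activity is given as % of DMSO.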

For test [6], the target named is T6, Avi-KRAS G12C (2-169) GTP/RAF1 RBD-3xFLAG (51-131) (Homo sapiens, UniProt P01116, G12C).
T6 construct: Avi-KRAS G12C (2-169)
T6 sequence (P01116 2-169 isoform P01116-2 G12C): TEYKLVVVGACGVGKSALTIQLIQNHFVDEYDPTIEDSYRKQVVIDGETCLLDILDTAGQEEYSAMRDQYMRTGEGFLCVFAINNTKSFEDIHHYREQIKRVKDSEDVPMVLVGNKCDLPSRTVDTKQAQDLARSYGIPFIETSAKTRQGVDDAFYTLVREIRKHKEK
Kind of test: Raf1-KRAS G12C-GTP disruption HTRF assay (Biological Example 3). The settings on record: KRAS G12C, GTP-loaded. The essentials: as §2

Test [7] has as its target T7, Avi-KRAS G12V (2-169) GTP/RAF1 RBD-3xFLAG (51-131) (Homo sapiens, UniProt P01116, G12V).
T7 construct: Avi-KRAS G12V (2-169)
Kind of test: Raf1-KRAS G12V-GTP disruption HTRF assay (Biological Example 3). The settings on record: KRAS G12V, GTP-loaded. The essentials: as §2

Bounds are passed on as bounds.

T7 sequence (P01116 2-169 isoform P01116-2 G12V): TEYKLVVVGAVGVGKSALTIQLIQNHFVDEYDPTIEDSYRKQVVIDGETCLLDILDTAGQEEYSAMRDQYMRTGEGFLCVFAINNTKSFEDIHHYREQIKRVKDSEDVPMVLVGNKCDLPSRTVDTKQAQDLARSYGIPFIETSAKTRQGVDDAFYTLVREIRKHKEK
T1 sequence (P01116 1-169 isoform P01116-2 G12D): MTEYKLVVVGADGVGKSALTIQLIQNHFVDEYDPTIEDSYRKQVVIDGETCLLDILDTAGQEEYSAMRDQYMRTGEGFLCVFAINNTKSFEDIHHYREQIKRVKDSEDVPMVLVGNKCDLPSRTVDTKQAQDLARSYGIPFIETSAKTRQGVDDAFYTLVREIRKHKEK
T3 sequence (P01116 1-169 isoform P01116-2 G12V): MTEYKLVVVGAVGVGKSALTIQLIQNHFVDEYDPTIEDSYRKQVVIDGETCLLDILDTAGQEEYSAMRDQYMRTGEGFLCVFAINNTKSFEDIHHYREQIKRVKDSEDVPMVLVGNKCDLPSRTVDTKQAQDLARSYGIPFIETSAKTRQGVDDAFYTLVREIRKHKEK
T4 sequence (P01116 1-169 isoform P01116-2): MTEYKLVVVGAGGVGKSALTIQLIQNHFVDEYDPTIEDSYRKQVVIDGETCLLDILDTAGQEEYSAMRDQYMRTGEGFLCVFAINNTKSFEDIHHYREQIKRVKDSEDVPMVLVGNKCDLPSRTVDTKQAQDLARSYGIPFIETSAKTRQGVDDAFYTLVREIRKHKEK
T5 sequence (P01116 2-169 isoform P01116-2 G12D): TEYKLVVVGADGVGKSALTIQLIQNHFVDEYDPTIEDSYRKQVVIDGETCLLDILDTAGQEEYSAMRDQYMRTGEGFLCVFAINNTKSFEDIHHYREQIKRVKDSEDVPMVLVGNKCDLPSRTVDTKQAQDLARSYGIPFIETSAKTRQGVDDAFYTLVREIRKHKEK
T2 sequence (P01116 1-169 isoform P01116-2 G12R): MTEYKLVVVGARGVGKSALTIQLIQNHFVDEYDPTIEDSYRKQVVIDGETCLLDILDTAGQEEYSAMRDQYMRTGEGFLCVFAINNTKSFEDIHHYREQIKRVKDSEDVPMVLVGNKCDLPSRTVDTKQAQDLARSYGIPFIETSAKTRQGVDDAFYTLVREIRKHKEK

For the compound `CCN(c1nc(OC[C@@]23CCCN2C[C@H](F)C3)nc2c(F)c(-c3ccc(F)c4sc(N)c(C#N)c34)c(C(F)(F)F)cc12)C1C[C@@H](C)N(C(=O)C2CC2)C1` (stereo partly drawn) [Compound 516], the half-inhibitory concentration (IC50) in test [1] is less than 100 nM; in test [2], less than 100 nM; in test [3] it was 100 to 1000 nM; in test [4], 100 to 1000 nM; in test [5], 100 to 1000 nM; in test [6], 100 to 1000 nM. This compound returned a 50% inhibitory concentration (IC50) in test [7] of 100 to 1000 nM.
Turning to `CCC(=O)N1C[C@H](N(CC)c2nc(OC[C@@]34CCCN3C[C@H](F)C4)nc3c(F)c(-c4ccc(F)c5sc(N)c(C#N)c45)c(C(F)(F)F)cc23)C[C@@H]1C` (atropisomer, axis not shown) [Compound 533], the IC50 in test [1], in test [2], in test [3], in test [4], in test [5] and in test [6] was 100 to 1000 nM throughout. In addition, the IC50 in test [7] fell in the range of 100 to 1000 nM.
Regarding `CCN(c1nc(OC[C@@]23CCCN2C[C@H](F)C3)nc2c(F)c(-c3ccc(F)c4sc(N)c(C#N)c34)c(C(F)(F)F)cc12)[C@H]1C[C@H]2COC(=O)N2C1` (atropisomer, axis not shown; (aS)) [Compound 518, 2-amino-4-((S)-4-(ethyl((6S,7aS)-3-oxotetrahydro-1H,3H-pyrrolo[1,2-c]oxazol-6-yl)amino)-8-fluoro-2-(((2R,7aS)-2-fluorotetrahydro-1H-pyrrolizin-7a(5H)-yl)methoxy)-6-(trifluoromethyl)quinazolin-7-yl)-7-fluorobenzo[b]thiophene-3-carbonitrile], the IC50 in test [1] is less than 100 nM; in test [2] it was less than 100 nM; in test [3], less than 100 nM; in test [4], less than 100 nM; in test [5] it was no more than 100 nM; in test [6], no more than 100 nM. Further, the IC50 in test [7] was no more than 100 nM.
For the compound `CCN(c1nc(OC[C@@]23CCCN2C[C@H](F)C3)nc2c(F)c(-c3ccc(F)c4sc(N)c(C#N)c34)c(C(F)(F)F)cc12)[C@H]1CCN(C(=O)C(C)C)C1` (atropisomer, axis not shown) [Compound 468], the IC50 in test [1], in test [2], in test [3] and in test [4] was greater than 10000 nM each time.
For `CN(C)C(=O)[C@@H]1CC[C@@H](N(C)c2nc(OC[C@@]34CCCN3C[C@H](F)C4)nc3c(F)c(-c4ccc(F)c5sc(N)c(C#N)c45)c(C(F)(F)F)cc23)C1` (atropisomer, axis not shown) [Compound 512], the 50% inhibitory concentration (IC50) in test [1], in test [2], in test [3], in test [4], in test [5] and in test [6] was 100 to 1000 nM throughout. The same compound gave a concentration for half-maximal inhibition (IC50) in test [7] of 1000 to 10000 nM.
Consider `CCN(c1nc(OC[C@@]23CCCN2C[C@H](F)C3)nc2c(F)c(-c3ccc(F)c4sc(N)c(C#N)c34)c(C(F)(F)F)cc12)[C@@H]1C[C@@H](C)N(C(C)=O)C1` (atropisomer, axis not shown) [Compound 527], for which the IC50 in test [1], in test [2], in test [3], in test [4], in test [5] and in test [6] was 100 to 1000 nM in each case. Besides, the IC50 in test [7] was in the range of 100 to 1000 nM.
Take `CCN(c1nc(OC[C@@]23CCCN2C[C@H](F)C3)nc2c(F)c(-c3ccc(F)c4sc(N)c(C#N)c34)c(C(F)(F)F)cc12)[C@H]1C[C@H]2CN(C)C(=O)N2C1` (atropisomer, axis not shown; (aS)) [Compound 543, 2-amino-4-((S)-4-(ethyl((6S,7aS)-2-methyl-3-oxohexahydro-1H-pyrrolo[1,2-c]imidazol-6-yl)amino)-8-fluoro-2-(((2R,7aS)-2-fluorotetrahydro-1H-pyrrolizin-7a(5H)-yl)methoxy)-6-(trifluoromethyl)quinazolin-7-yl)-7-fluorobenzo[b]thiophene-3-carbonitrile]: the IC50 in test [1] is less than 100 nM; in test [2], less than 100 nM; in test [3], less than 100 nM; in test [4] it was less than 100 nM; in test [5], no more than 100 nM; in test [6], no more than 100 nM. In test [7], this compound had an IC50 of no more than 100 nM.
For `CCN(c1nc(OC[C@@]23CCCN2C[C@H](F)C3)nc2c(F)c(-c3ccc(F)c4sc(N)c(C#N)c34)c(C(F)(F)F)cc12)[C@H]1CCN(C(=O)C(C)C)C1` (single isomer, unassigned) [Compound 469], the IC50 in test [1] is less than 100 nM; in test [2], less than 100 nM; in test [3], less than 100 nM; in test [4], less than 100 nM; in test [5] it was no more than 100 nM; in test [6], no more than 100 nM. The compound further had an IC50 in test [7] of no more than 100 nM.
Turning to `CCN(c1nc(OC[C@@]23CCCN2C[C@H](F)C3)nc2c(F)c(-c3ccc(F)c4sc(N)c(C#N)c34)c(C(F)(F)F)cc12)[C@@H]1CC(=O)N(C)C1` [Compound 520], the IC50 in test [1], in test [2], in test [3], in test [4], in test [5] and in test [6] was 100 to 1000 nM in each case. Moreover, the IC50 in test [7] lay in the range of 100 to 1000 nM.
As for `CCN(c1nc(OC[C@@]23CCCN2C[C@H](F)C3)nc2c(F)c(-c3ccc(F)c4sc(N)c(C#N)c34)c(C(F)(F)F)cc12)[C@@H]1CCN(C(=O)C2CC2)[C@@H]1C` (atropisomer, axis not shown) [Compound 524], the IC50 in test [1] is less than 100 nM; in test [2], less than 100 nM; in test [3], less than 100 nM; in test [4], less than 100 nM; in test [5] it was no more than 100 nM; in test [6] it was 100 to 1000 nM. This compound also yielded an IC50 in test [7] of no more than 100 nM.
Regarding `CCOC(=O)N1CC[C@H](N(CC)c2nc(OC[C@@]34CCCN3C[C@H](F)C4)nc3c(F)c(-c4ccc(F)c5sc(N)c(C#N)c45)c(C(F)(F)F)cc23)C1` [Compound 467], the IC50 was less than 100 nM in test [1], less than 100 nM in test [2], less than 100 nM in test [3] and 100 to 1000 nM in test [4].
As for `N#Cc1c(N)sc2c(F)ccc(-c3c(C(F)(F)F)cc4c(N5CCn6nc(N7CCOCC7)cc6C5)nc(OC[C@@]56CCCN5C[C@H](F)C6)nc4c3F)c12` [Compound 485], the IC50 in test [1], in test [2], in test [3] and in test [4] was 1000 to 10000 nM in each case.
As for `CCN(c1nc(OC[C@@]23CCCN2C[C@H](F)C3)nc2c(F)c(-c3ccc(F)c4sc(N)c(C#N)c34)c(C(F)(F)F)cc12)[C@H]1CCS(=O)(=O)C1` (atropisomer, axis not shown) [Compound 492], the IC50 is less than 100 nM in test [1], less than 100 nM in test [2], 100 to 1000 nM in test [3] and less than 100 nM in test [4].
Regarding `Cc1cc2n(n1)CCN(c1nc(OCC34CCCN3CC(F)C4)nc3c(F)c(-c4ccc(F)c5sc(N)c(C#N)c45)c(C(F)(F)F)cc13)C2` (stereo not drawn) [Compound 484], the 50% inhibitory concentration (IC50) in test [1], in test [2], in test [3] and in test [4] was 1000 to 10000 nM each time.
`CCN(c1nc(OC[C@@]23CCCN2C[C@H](F)C3)nc2c(F)c(-c3ccc(F)c4sc(N)c(C#N)c34)c(C(F)(F)F)cc12)[C@H]1C[C@H](C)N(C(=O)C2CC2)C1` [Compound 470]: the IC50 in test [1], in test [2], in test [3] and in test [4] was less than 100 nM each time.
As to `CCN(c1nc(OC[C@@]23CCCN2C[C@H](F)C3)nc2c(F)c(-c3ccc(F)c4sc(N)c(C#N)c34)c(C(F)(F)F)cc12)[C@H]1CCN(C(=O)N(C)C)C1` (atropisomer, axis not shown) [Compound 540, (3S)-3-[[7-(2-amino-3-cyano-7-fluoro-benzothiophen-4-yl)-8-fluoro-2-[[(2R,8S)-2-fluoro-1,2,3,5,6,7-hexahydropyrrolizin-8-yl]methoxy]-6-(trifluoromethyl)quinazolin-4-yl]-ethyl-amino]-N,N-dimethyl-pyrrolidine-1-carboxamide], the IC50 in test [5], in test [6] and in test [7] was no more than 100 nM in each case.

Usually IC50 stands for the concentration needed to halve the response being measured. The low end stands for inhibition by little substance, the high end for a need for much substance.
